How the values were obtained:
C57BL/6N mice = assay: Evaluation of NIK-333 and ATRA for toxicity in mice (Example 2); type: in vivo, mouse; conditions: oral once per day for 2 weeks, versus soybean oil control
Method: 7-Week old C57BL/6N mice (Charles River Japan) were given with MK-333 or ATRA once per day for 2 weeks by forcible continuous oral administration. After completion of the test, S-TG concentrations and testis weights of individual mice were measured. To the control group, soybean oil was administered.

rats = conditions: literature; cited from earlier work
mice = conditions: literature; cited from earlier work
[1] = tested on: SD male rats on high fat diet (HFD32); assay: Action of NIK-333 for decreasing hepatic lipid amount in high fat diet rats (Example 1); type: in vivo, rat; conditions: oral once a day for 8 weeks, serum
From the text: For the experiment, 6-week old SD male rats (Charles River Japan) were used. HFD32 (Clea Japan) was used for the high fat diet group, and CE-2 (Clea Japan) was used for the normal control group. The feeding was restricted to 25±3 g for both of the groups. Administration of NIK-333 was started at the same time as the start of the loading of the high fat diet, and the drug was given once a day for 8 weeks by forcible continuous oral administration. After completion of the test, each liver was extracted, and triglyceride (H-TG) amount and cholesterol (H-T-chol) amount in the liver were measured. Hematoxylin-eosin (H.E.) and Oil Red O (O.R.) staining samples were prepared from the extracted liver, and histopathological examination was performed. Degree of fatty degeneration of the liver was graded into five categories on the basis of the examination of the H.E. staining sample, and scores were assigned. Further, from the O.R. staining sample, O.R. positive area in the liver sample area was calculated by using an image analyzer. Furthermore, triglyceride (S-TG), total cholesterol (S-T-chol), alanine aminotransferase (S-ALT), and aspartate aminotransferase (S-AST) levels in serum were measured.

recurrence of hepatoma = conditions: clinical, during the administration; cited from earlier work

| Compound | S-TG concentration (FIG. 5) (C57BL/6N mice) | testis weight (FIG. 6) (C57BL/6N mice) | testis weight (rats) | testis weight (mice) | lipid concentration in blood (S-TG, S-T-chol; FIG. 3) [1] | liver function failure or other adverse effects caused by retinoids (recurrence of hepatoma) |
| --- | --- | --- | --- | --- | --- | --- |
| CC1=C(/C=C/C(C)=C/C=C/C(C)=C/C(=O)O)C(C)(C)CCC1 [ATRA, all-trans-retinoic acid] | increases the S-TG concentration | markedly decreases testis weight | decreased testis weight | decreased testis weight | – | – |
| CC(C)=CCC/C(C)=C/CC/C(C)=C/C=C/C(C)=C/C(=O)O [NIK-333, (2E,4E,6E,10E)-3,7,11,15-tetramethyl-2,4,6,10,14-hexadecapentaenoic acid] | does not affect the concentration | does not affect the weight | – | – | without affecting lipid concentration in blood | not substantially observed |
